Measured values: publication PMC8508980, “Design, Synthesis and Anticancer Profile of New 4-(1H-benzo[d]imidazol-1-yl)pyrimidin-2-amine-Linked Sulfonamide Derivatives with V600EBRAF Inhibitory Effect” (International Journal of Molecular Sciences, 2021)

Key:
786-0 = assay: NCI 60 cell line screen; type: cell-based; conditions: Homo sapiens; 786-0, Renal Cancer; read-out: Percent growth
Method in brief: (§1)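 Human tumour lines were grown in RPMI 1640 with 5% FBS and 2 mM L-glutamine, then exposed 48 h at 37 °C to five concentrations (max 10 µM) after 24 h pre-incubation. Growth was measured by sulforhodamine B protein staining at 515 nm relative to time-zero and untreated controls.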

TK-10 = assay: NCI 60 cell line screen; type: cell-based; conditions: Homo sapiens; TK-10, Renal Cancer; read-out: Percent growth
Method in brief: as §1

SK-MEL-2 = assay: NCI 60 cell line screen; type: cell-based; conditions: Homo sapiens; SK-MEL-2, Melanoma; read-out: Percent growth
Method in brief: as §1

HS 578T = assay: NCI 60 cell line screen; type: cell-based; conditions: Homo sapiens, Breast Cancer, read-out: Percent growth
Method in brief: as §1

HOP-62 = assay: NCI 60 cell line screen; type: cell-based; conditions: Homo sapiens; HOP-62, Non-Small Cell Lung Cancer; read-out: Percent growth
Method in brief: (§2)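 Cells seeded, incubated 24 h, then a time-zero plate fixed with TCA. Drug added at five concentrations up to 10 µM for 48 h at 37 °C. Cells fixed with TCA (16% for suspension lines), stained with SRB, absorbance read at 515 nm.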

SK-MEL-28 = assay: NCI 60 cell line screen; type: cell-based; conditions: Homo sapiens; SK-MEL-28, Melanoma; read-out: Percent growth
Method in brief: as §1

ACHN = assay: NCI 60 cell line screen; type: cell-based; conditions: Homo sapiens, Renal Cancer, read-out: Percent growth
Method in brief: as §1

SW-620 = assay: NCI 60 cell line screen; type: cell-based; conditions: Homo sapiens; SW-620, Colon Cancer; read-out: Percent growth
Method in brief: as §1

SNB-19 = assay: NCI 60 cell line screen; type: cell-based; conditions: Homo sapiens; SNB-19, CNS-Cancer; read-out: Percent growth
Method in brief: as §1

UACC-62 = assay: NCI 60 cell line screen; type: cell-based; conditions: Homo sapiens; UACC-62, Melanoma; read-out: Percent growth
Method in brief: as §2

CRAF = CRAF (Homo sapiens, UniProt P04049); assay: Reaction Biology kinase HotSpot enzyme assay; type: biochemical; conditions: 1 µM ATP; mean ± S.D. of two separate experiments; read-out: IC50 CRAF
Method: Reaction Biology Corp. Kinase HotSpotTM service http://www.reactionbiology.com was used for screening of compounds IC50 Proﬁler Express for IC50 measurement. Assay protocol: In a ﬁnal reaction volume of 25 μL, kinase (5–10 mU) is incubated with 25 mM Tris pH 7.5, 0.02 mM EGTA, 0.66 mg/mL myelin basic protein, 10 mM magnesium acetate and [γ33P-ATP] (speciﬁc activity approx. 500 cpm/pmol, concentration as required). The reaction is initiated by the addition of the Mg-ATP mix. After incubation for 40 min at room temperature, the reaction is stopped by the addition of 5 μL of a 3% phosphoric acid solution. 10 μL of the reaction is then spotted onto a P30 ﬁltermat, and washed three times for 5 min in 75 mM phosphoric acid and once in methanol prior to drying and scintillation counting.

OVCAR-4 = assay: NCI 60 cell line screen; type: cell-based, human; conditions: for activity at 10 µM: Homo sapiens, OVCAR-4, Ovarian Cancer, read-out: Percent growth
Method: (§3) Anticancer profiling over a panel of 60 cancer cell lines was carried out at the National Cancer Institute (NCI), Bethesda, Maryland, USA, https://dtp.cancer.gov/discovery_development/nci-60/methodology.htm (Last visit 22 September 2021), using the standard procedure (detailed procedure is located in the Supplementary Information page 50 s).
(§4) NCI standard procedure for 60 cell lines assay
(§5) The human tumor cell lines of the cancer screening panel are grown in RPMI 1640 mediu m containing 5% fetal bovine serum and 2 mM L-glutamine. For a typical screening experiment, cells are inoculated into 96 well microtiter plates in 100 μL at plating densities ranging from 5,000 to 40,000 cells/well depending on the doubling time of individual cell lines. After cell inoculation, the microtiter plates are incubated at 37° C, 5 % CO2, 95 % air and 100 % relative humidity for 24 h prior to addition of experimental drugs.
(§6) After 24 h, two plates of each cell line are fixed in situ with TCA, to represent a measurement of the cell population for each cell line at the time of drug addition (Tz). Experimental drugs are solubilized in dimethyl sulfoxide at 400-fold the desired final maximum test concentration (10 µM) and stored frozen prior to use. At the time of drug addition, an aliquot of frozen concentrate is thawed and diluted to twice the desired final maximum test concentration with co mp lete medium containing 50 μg/ml gentamicin. Additional four, 10-fold or ½ log serial dilutions are made to provide a total of five drug concentrations plus control. Aliquots of 100 μl of these different drug dilutions are added to the appropriate microtiter wells already containing 100 μl of medium, resulting in the required final drug concentrations.
(§7) Following drug addition, the plates are incubated for an additional 48 h at 37°C, 5 % CO2, 95 % air, and 100 % relative humidity. For adherent cells, the assay is terminated by the addition of cold TCA. Cells are fixed in situ by the gentle addition of 50 μl of cold 50 % (w/v) TCA (final concentration, 10 % TCA) and incubated for 60 minutes at 4°C. The supernatant is discarded, and the plates are washed five times with tap water and air dried. Sulforhodamine B (SRB) solution (100 μl) at 0.4 % (w/v) in 1 % acetic acid is added to each well, and plates are incubated for 10 minutes at room temperature. After staining, unbound dye is removed by washing five times with 1 % acetic acid and the plates are air dried. Bound stain is subsequently solubilized with 10 mM trizma base, and the absorbance is read on an automated plate reader at a wavelength of 515 nm. For suspension cells, the methodology is the same except that the assay is terminated by fixing settled cells at the bottom of the wells by g ently adding 50 μl of 80 % TCA (final concentration, 16 % TCA). Using the seven absorbance measurements [time zero, (Tz), control growth, (C), and test growth in the presence of drug at the five concentration levels (Ti)], the percentage growth is calculated at each of the drug concentrations levels. Percentage growth inhibition is calculated as:
(§8) [(Ti-Tz)/(C-Tz)] x 100 for concentrations for which Ti>/=Tz
(§9) [(Ti-Tz)/Tz] x 100 for concentrations for which Ti<Tz.
(§10) Three dose response parameters are calculated for each experimental agent. Growth inhibition of […]
(§11) resulting in a 50% reduction in the net protein increase (as measured by SRB staining) in control cells during the drug incubation. The drug concentration resulting in total growth inhibition […]
(§12) (TGI) is calculated from Ti = Tz.

NCI/ADR-RES = assay: NCI 60 cell line screen; type: cell-based, human; conditions: Homo sapiens, Ovarian Cancer, read-out: Percent growth
Method: as §3, §4, §5, §6, §7, §8, §9, §10, §11, §12

PC-3 = assay: NCI 60 cell line screen; type: cell-based, human; conditions: Homo sapiens; PC-3, Prostate Cancer; read-out: Percent growth
Method: as §3, §4, §5, §6, §7, §8, §9, §10, §11, §12

SK-MEL-5 = assay: NCI 60 cell line screen; type: cell-based, human; conditions: for activity at 10 µM: Homo sapiens, SK-MEL-5, Melanoma, read-out: Percent growth; for percent inhibition: SK-MEL-5, NCI-60 heat map analysis
Method: as §3, §4, §5, §6, §7, §8, §9, §10, §11, §12

NCI-H522 = assay: NCI 60 cell line screen; type: cell-based, human; conditions: for activity at 10 µM: Homo sapiens, NCI-H522, Non-Small Cell Lung Cancer, read-out: Percent growth
Method: as §3, §4, §5, §6, §7, §8, §9, §10, §11, §12

RPMI-8226 = assay: NCI 60 cell line screen; type: cell-based, human; conditions: for activity at 10 µM: Homo sapiens, RPMI-8226, Leukemia, read-out: Percent growth
Method: as §3, §4, §5, §6, §7, §8, §9, §10, §11, §12

Chain of CRAF (P04049 whole entry): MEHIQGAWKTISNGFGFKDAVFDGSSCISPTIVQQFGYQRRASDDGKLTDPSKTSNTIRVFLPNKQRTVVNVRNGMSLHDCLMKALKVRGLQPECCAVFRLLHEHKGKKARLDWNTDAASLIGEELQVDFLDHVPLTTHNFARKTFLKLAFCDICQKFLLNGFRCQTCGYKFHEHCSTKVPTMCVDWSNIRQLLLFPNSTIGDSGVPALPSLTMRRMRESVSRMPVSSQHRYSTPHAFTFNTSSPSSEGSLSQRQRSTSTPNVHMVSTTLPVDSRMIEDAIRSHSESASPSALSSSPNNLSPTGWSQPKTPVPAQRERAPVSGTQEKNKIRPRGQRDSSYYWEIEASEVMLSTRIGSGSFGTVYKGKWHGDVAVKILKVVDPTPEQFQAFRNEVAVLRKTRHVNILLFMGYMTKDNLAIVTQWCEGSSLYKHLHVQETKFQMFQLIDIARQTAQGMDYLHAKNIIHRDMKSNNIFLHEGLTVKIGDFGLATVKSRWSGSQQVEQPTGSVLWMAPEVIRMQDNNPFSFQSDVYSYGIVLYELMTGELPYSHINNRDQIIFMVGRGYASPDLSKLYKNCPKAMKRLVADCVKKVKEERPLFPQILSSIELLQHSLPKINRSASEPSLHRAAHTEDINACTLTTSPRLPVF

Row | Structure (SMILES) | activity at 10 µM (786-0) [%] | activity at 10 µM (TK-10) [%] | activity at 10 µM (SK-MEL-2) [%] | activity at 10 µM (HS 578T) [%] | activity at 10 µM (HOP-62) [%] | activity at 10 µM (SK-MEL-28) [%] | activity at 10 µM (ACHN) [%] | activity at 10 µM (SW-620) [%] | activity at 10 µM (SNB-19) [%] | activity at 10 µM (UACC-62) [%] | IC50 (CRAF) [nM] | activity at 10 µM (OVCAR-4) [%] | activity at 10 µM (NCI/ADR-RES) [%] | activity at 10 µM (PC-3) [%] | activity at 10 µM (SK-MEL-5) [%] | percent inhibition (SK-MEL-5) [%] | activity at 10 µM (NCI-H522) [%] | activity at 10 µM (RPMI-8226) [%] | also measured
1 | O=S(=O)(NCCCNc1nccc(-n2cnc3ccccc32)n1)c1ccc(F)cc1 [12i, N-(3-((4-(1H-benzo [d]imidazol-1-yl)pyrimidin-2-yl)amino)propyl)-4-fluorobenzenesulfonamide] | 97.7 | 91.9 | 85.8 | 82.4 | 82.7 | 97.9 | 81.2 | 96.2 | 92.6 | 61.6 | 980 ± 44 | 44.2 | 64.3 | 69.3 | 2.63 | 97 | 68.5 | 57.8 | percent inhibition (OVCAR-4; OVCAR-4, NCI-60 heat map analysis): 56%; percent inhibition (NCI-H522; NCI-H522, NCI-60 heat map analysis): around 30%
2 | O=S(=O)(NCCNc1nccc(-n2cnc3ccccc32)n1)c1ccc(Br)cc1 [12d, N-(2-((4-(1H-benzo [d]imidazol-1-yl)pyrimidin-2-yl)amino)ethyl)-4-bromobenzenesulfonamide] | 103 | 103 | 108 | 85.7 | 87.2 | 108 | 93.6 | 110 | 101 | 82.8 | 2100 ± 180 | 82.2 | 97.6 | 93.8 | 89.1 | – | 87.2 | 79.8 | –
3 | O=S(=O)(NCCNc1nccc(-n2cnc3ccccc32)n1)c1ccc(F)cc1 [12b, N-(2-((4-(1H-benzo [d]imidazol-1-yl)pyrimidin-2-yl)amino)ethyl)-4-fluorobenzenesulfonamide] | 102 | 97.8 | 101 | 85.5 | 90.9 | 101 | 88.3 | 100 | 93 | 71.3 | 1340 ± 190 | 72.3 | 103 | 91.3 | 78 | – | 71.8 | 73.6 | –
4 | Cc1ccc(S(=O)(=O)NCCNc2nccc(-n3cnc4ccccc43)n2)cc1 [12g, N-(2-((4-(1H-benzo [d]imidazol-1-yl)pyrimidin-2-yl)amino)ethyl)-4-methyl benzenesulfonamide] | 85.4 | 83.7 | 87.7 | 64.2 | 69.6 | 94.4 | 73 | 90.8 | 86.8 | 53 | 1480 ± 99 | 42.1 | 75.7 | 76.1 | 20.8 | 80 | 64.6 | 52.5 | percent inhibition (RPMI-8226; RPMI-8226, NCI-60 heat map analysis): around 45%
5 | COc1ccc(S(=O)(=O)NCCNc2nccc(-n3cnc4ccccc43)n2)cc1 [12f, N-(2-((4-(1H-benzo [d]imidazol-1-yl)pyrimidin-2-yl)amino)ethyl)-4-methoxy benzenesulfonamide] | 93 | 92.5 | 106 | 84.1 | 94.6 | 97.9 | 97.1 | 103 | 95.3 | 76.6 | 1670 ± 210 | 84.3 | 98.7 | 97.5 | 92.2 | – | 84.4 | 94 | –
